# Data: PubChem BioAssay AID1053162 (Broad Institute, 2014)
# Test system: HepG2 PCSK9 mRNA, RT-qPCR, 24 h
# Experiment: PCSK9 mRNA changes with sterol depletion, late-stage follow-up, mechanism study for Trib1 inducer project, cell-based, HepG2, RT-PCR, cherry-picked dose (AID 1053162)
# Conditions: active compounds read high
smiles,measurement,value
CN1C(=O)c2cc(NC(=O)c3ccc(C(F)(F)F)cc3)ccc2OC[C@@H]2O[C@H](CC(=O)NC3Cc4ccccc4C3)CC[C@@H]21,fold induction,2.5
